The subject of data set [1] is Hepatic cancer cells (HepG2). Put plainly: proliferation of cultured cells, MTT method, HepG2. The class given is cell-based, human. Conditions: saccharide 50 mM, 4 to 5 days. How it is done: (§1) Various kinds of rare saccharides were added at a concentration of 50 mM to culture media under the following conditions, and an influence of each rare saccharide upon the progress of proliferation of cancer cell strains was examined.
(§2) (1) Target cells to which the rare saccharides were added: Hepatic cancer cells (HepG2), uterine cancer cells (He1a), ovary cancer cells (OVCAR3), and skin keratinocyte (HaCaT) were selected as target cells to which the rare saccharides were added.
(§3) (2) Rare saccharides added: In addition to D-allose, glucose and D-altros as rare saccharides belonging to ketose were added, as other comparative saccharides, to the addition target cells. Also, D-fructose was employed as a control.
(§4) (3) Experiment method: A number 3,000-5,000 of addition target cells per type were inoculated into a multi-well plastic dish (hereinafter referred to as a “well”) having 96 wells, and were cultured for 4 to 5 days in a culture medium supplemented with 5 to 10% of Fetal Bovine Serum (FBS) depending on the cell types. D-Allose, D-glucose and D-altros were each added at concentration of 50 mM to the addition target cells per type. Similarly, D-fructose as a control was added at a concentration of 50 mM. To examine the influence upon the cell proliferation, the cell number was measured in units of 24 hours by using the MTT method described below.
(1) Preparation of reagents: A predetermined amount of MTT (tetrazolium salt) was dissolved in PBS(−) sterilized in an autoclave to obtain an MTT solution through filtering and sterilization. An acidic solution was prepared by adding 50 mL of N,N-dimethylformaldehyde and water to a predetermined amount of (20 g) of SDS, thereby obtaining a 100 mL of solution. […]
(2) Test method: The cells were treated with TEP to prepare a cell suspension liquid. […] The absorbance of the liquid was measured at a wavelength of 570 to 600 nm by using a spectrophotometer. After dissolving the colored substance (formazan) in the acid solution, the absorbance can be measured directly by a plate reader.
On the technique in general: Formazan colour is commonly taken as a measure of viable cells.

Data set [2] has as its system ovary cancer cells (OVCAR3). As to the kind of experiment: proliferation of cultured cells, MTT method, OVCAR3. Format: cell-based. Conditions: for proliferation of OVCAR3 cells (cell number over time): saccharide 50 mM, 4 to 5 days, MTT. How it is done:
as §1, §2, §3, §4
(1) Preparation of reagents: A predetermined amount of MTT (tetrazolium salt) was dissolved in PBS(−) sterilized in an autoclave to obtain an MTT solution through filtering and sterilization. An acidic solution was prepared by adding 50 mL of N,N-dimethylformaldehyde and water to a predetermined amount of (20 g) of SDS, thereby obtaining a 100 mL of solution. About […] of 1N hydrochloric acid was added to the solution for adjustment of a pH-value to 4.7. The solution was preserved at room temperature and warmed up to 37° C. just before the use.
(2) Test method: The cells were treated with TEP to prepare a cell suspension liquid. This cell suspension liquid was pipetted in a predetermined cell-density (300 to 52000 cells/well) to each well (96-well plate: 0.1 mL of culture medium per well). The saccharide as a drug was added in a predetermined amount to each well, followed by cultivation for a whole day and night in a CO2 incubator. Then, 0.5 mg/mL of the MTT solution was added and the resulting culture was incubated for 4 hours in the incubator. Thereafter, the culture medium was completely removed. Then, in a room kept at 37° C., an acid solution was added in amount of 0.1 mL/well. The well plate was placed on a micro-plate mixer and shaken at 37° C. for 20 minutes to dissolve a colored substance (namely, to dissolve “formazan” in the acid solution). The absorbance of the liquid was measured at a wavelength of 570 to 600 nm by using a spectrophotometer. After dissolving the colored substance (formazan) in the acid solution, the absorbance can be measured directly by a plate reader.
(1) Experiment method: The ovary cancer cells (OVCAR3) were selected as target cells to which a rare saccharide was added, and D-allose as the saccharide was added at concentrations of 1 mM, 5 mM, 10 mM, 20 mM, 50 mM and 100 mM. The experimental conditions, such as the method of culturing the ovary cancer cells (OVCAR3) and the method of measuring the cell number (MTT method), were the same as those in Example 1.

A further data set has as its system Daudi. As to the kind of experiment: blood-system cancer cell strain proliferation, Coulter Counter, Daudi. Conditions: for Daudi cell number relative to glucose: seventh day, glucose = 100%; for Daudi-cell proliferation inhibitory effect: 0.05-50 mM, 7 days, D-glucose control. The class given is cell-based. As to the method: (2) Method: Total 6 kinds of cell strains, i.e., Myeloid (HL-60, THP-1, KG-1), T-cell (MT-2), and B-Cell (Daudi, KS-1), and 3 kinds of rare saccharides (i.e., D-psicose, D-altrose, and D-allose), were employed. The culture medium and the cells were prepared to be 1 mL in total and 1×10^5 in number, respectively. Then, the cell number at each of fourth day and seventh day was counted by using a Coulter Counter. Each rare saccharide was added at concentrations of 0.05, 0.5, 5 and 50 mM, while D-glucose was used as a control.
Culture Medium: FBS 10% added RPMI1460
Cultivation Conditions: 37° C., 5% CO2
Cultivation Vessel: FALCON, MULTIWELL, 12 wells
Number of Cultivation Days: 7 days
Saccharides Concentration: 0.05, 0.5, 5, 50 mM

Data set [3] relates to Pancreas β-cell strains INS-1. As to the kind of experiment: insulin secretion from pancreas β-cell strain, ELISA. Format: cell-based, rat. Conditions: for concentration at which insulin secretion stimulus reached a plateau / insulin secretion into culture medium: saccharide alone; for insulin secretion into culture medium: 2.8-16.7 mM. How it is done:
Pancreas β-cell strains INS-1 derived from insulinoma were cultured under the culture medium condition of (DMEM +10% FBS) in accordance with the ordinary method. The INS-1 cells at density of about 70% were pipitted into a 96-well culture dish, and the following experiments were performed. D-psicose was used as the ketohexose belonging to the rare saccharides.
After cultivation for 24 hours with the glucose concentration in the culture medium set to 2.8 mM, 5.6 mM, 11.2 mM and 16.7 mM, the insulin concentration in the culture medium was measured by using an ELISA (insulin kit).
By using the ELISA method, the insulin concentration in the culture medium was measured while the D-psicose concentration in the culture medium was changed to 0 mM, 2.8 mM, 5.6 mM, 11.2 mM and 16.7 mM.
On the technique in general: In an ELISA, binding on a coated surface is turned into a signal by an enzyme label.

This note sets out measurements from patent US8420606B2, “Method of utilizing physiological activity of rare saccharide and composition containing rare saccharide” (priority 2002, dated 2013).

Structures are written as SMILES. Entries after “also recorded” stand apart in the source; their conditions may differ.

On to `O=C[C@H](O)[C@H](O)[C@H](O)[C@H](O)CO` [D-allose], for which, in data set [1], the “proliferation of HepG2 cells (cell number over time)” value is “strongly inhibited proliferation; also recorded: has a proliferation inhibitory effect”. The “concentration at which the cancer-cell proliferation inhibitory effect was first found” value in data set [2] (OVCAR3, 1, 5, 10, 20, 50, 100 mM tested, 10% fetal bovine serum) was 10 mM. In data set [2] (OVCAR3 cells to which D-allose was applied), the “dead cells (microscope, trypan blue-exclusion assay)” value is on record as “dead cells hardly existed”. For the same compound, in data set [2], the “proliferation of OVCAR3 cells (cell number over time)” value is “strongly inhibited proliferation; also recorded: has a proliferation inhibitory effect”. Besides, the “Daudi cell number relative to glucose” value in the data set on Daudi (0.05 mM) is reported as 85.9%; with Daudi (0.5 mM), 80.6%; in the data set on Daudi (5 mM), 62.2%; with Daudi (50 mM), 3.9%. The “Daudi-cell proliferation inhibitory effect” value in the data set with Daudi is reported as “having the inhibitory effect”; in the data set with Daudi (listed as allose) it was “showed an inhibitory effect”.

Regarding `O=C[C@H](O)[C@@H](O)[C@H](O)[C@H](O)CO` [D-glucose, reference compound], the “proliferation of HepG2 cells (cell number over time)” value in data set [1] is given as “hardly found”. The “proliferation of OVCAR3 cells (cell number over time)” value in data set [2] was “acted so as to promote the proliferation of the cancer cells”. The “concentration at which insulin secretion stimulus reached a plateau” value in data set [3] was determined as 11.2 mM. Also, the “insulin secretion into culture medium” value in data set [3] (24 hours) was “the insulin secretion from the cells was stimulated”.

With `O=C(CO)[C@H](O)[C@H](O)[C@H](O)CO` [D-psicose], in the data set on Daudi, the “Daudi-cell proliferation inhibitory effect” value is “showed no effect”. Moreover, the “insulin secretion with D-psicose added to glucose” value in data set [3] (glucose fixed at 11.2 mM, psicose 2.8-16.7 mM, 24 hours) is “further stimulated in an additive way; also recorded: further promoted”. For the same compound, the “concentration at which insulin secretion stimulus reached a plateau” value in data set [3] stood at 11.2 mM. For the same compound, the “insulin secretion into culture medium” value in data set [3] (24 hours) is on record as “insulin was secreted depending on the D-psicose concentration; also recorded: a reaction of secreting insulin depending on the concentration of D-psicose was found”.
